# Experimental data published in paper PMC12345137 (mBio, 2025).
# Read-outs that look alike come from different tables or passages of the source. Positions of bridges follow the written chain, without caps; N, C: chain ends. Residues, ends and D or L forms follow the SMILES beside them.
# What was measured:
# SA AgrC-II = SA AgrC-II (Staphylococcus aureus, UniProt O33587); assay: β-Lactamase assay, reporter strain RN10829 (P2-agrA:P3-blaZ) with pagrC-II; assay type: cell-based
# From the text: (§1) The β-lactamase reporter strain RN10829 (P2-agrA:P3-blaZ) ([62]), with pagrC-I ([63]), pagrC-II, pagrC-III, or pagrC-IV ([11]), substituting the native agr locus with a chromosomal integration of P2-agrA and P3-blaZ and a plasmid from which a wild-type variant of the corresponding AgrC is expressed, was used to assess inhibition and activation of the AgrC receptor via β-lactamase activity in response to varying concentrations of the QS modulating peptides. Overnight cultures of the reporter strains in TSB medium were diluted 1:250 in fresh TSB medium and grown to OD600 = 0.35–0.40 (early exponential phase) at 37°C. Peptide solutions (10 μL) in 1:10 serial dilutions from DMSO stock solutions (1 mM) in TSB medium (final concentrations = 10 μM–10 pM) were added to each well of a clear 96-well plate as well as solutions (10 μL) of cognate AIP (final concentration = 100 nM) in TSB medium followed by 80 μL of bacterial cells. Control wells for 100% β-lactamase activity were wells replacing peptide solution with TSB media (10 μL), and control wells for 0% β-lactamase activity were wells replacing both peptide and cognate AIP solutions with TSB medium (20 μL). The 96-well plates were incubated at 37°C shaking at 200 rpm for 1 h and immediately frozen down at −80°C to minimize growth during nitrocefin treatment. Next, the 96-well plates were thawed, and OD600 values were determined using a plate reader followed by the addition of 50 μL of nitrocefin solution to the wells (final concentration = 33.3 μg/mL). β-Lactamase activity was monitored at OD486 every 20 s for 10 min at 37°C using a plate-reader. Linear nitrocefin conversion rates were plotted to obtain IC50 values by non-linear regression with variable slope using GraphPad Prism 10.4 software. Assays were performed at least as duplicate determinations in biological triplicate.
# SA AgrC-IV = SA AgrC-IV (Staphylococcus aureus, UniProt Q309Z2); assay: β-Lactamase assay, reporter strain RN10829 (P2-agrA:P3-blaZ) with pagrC-IV; assay type: cell-based; conditions: 100 nM cognate AIP; ± SEM; -b = no inhibition recorded at the highest AIP concentration tested; -a = only partial inhibition observed; this study (curves in Fig. S22)
# From the text: as §1
# [1] = test system: S. epidermidis (SE) agr-I; conditions: fluorescence, cited from earlier work
# [2] = test system: S. epidermidis (SE) agr-II; conditions: fluorescence, cited from earlier work
# [3] = test system: S. epidermidis (SE) agr-III; conditions: fluorescence, cited from earlier work
# SA AgrC-I = SA AgrC-I (Staphylococcus aureus, UniProt O07911); assay: β-Lactamase assay, reporter strain RN10829 (P2-agrA:P3-blaZ) with pagrC-I; assay type: cell-based
# From the text: as §1, with “Control wells for 100% β-lactamase activity were wells replacing peptide solution with TSB media (10 μL), and control wells for 0% β-lactamase activity were wells replacing both peptide and cognate AIP solutions with TSB medium (20 μL).” left out
# S. epidermidis agr-II = S. epidermidis agr-II (Staphylococcus epidermidis, UniProt Q8VSX5); assay: cell-based; assay type: cell-based; conditions: fluorescent reporter strain; peptides tested at 1000, 50, 2.5, 0.125 nM or in dose-response
# Description: (§2) Peptides were evaluated for the ability to interfere with agr-mediated quorum sensing in S. aureus (AH1677, AH430, AH1747, and AH1872 for agr-I–IV, respectively) ([40]) using reporter strains expressing yellow fluorescent protein (YFP) upon agr activation. Interference with agr-mediated quorum sensing in S. epidermidis (AH3408, AH3623, and AH3409 for agr-I–III, respectively) ([45]), and S. lugdunensis (AH4031 for agr-I) ([37]) was evaluated using reporter strains expressing superfolder green fluorescent protein (sGFP) upon agr activation. Overnight cultures of the reporter strains were grown in TSB medium containing chloramphenicol (CAM, 10 μg/mL for S. aureus) or erythromycin (ERM, 10 μg/mL of S. epidermidis and S. lugdunensis) and diluted 1:100 in fresh TSB medium containing the same antibiotic. Assays were performed in sterile black 96-well plates with a clear bottom. […] DMSO stock solutions of peptides (1 mM) were diluted in TSB media and added (15 μL) in technical triplicate to the 96-well plate, followed by diluted bacterial overnight cultures (135 μL). Control wells for 100% agr activity were wells replacing the peptide solution with TSB medium (15 μL). […] Wells containing 150 μL TSB medium were used to measure background fluorescence. The 96-well plates were incubated in a humidified incubator at 37°C shaking at 1,000 rpm for 22–24 h and fluorescence (for GFP: excitation 479 nm, emission 520 nm; for YFP: excitation 500 nm, emission 541 nm; automatic gain), and OD600 values were subsequently measured using a plate reader. Background fluorescence was subtracted from all wells and further normalized to the corresponding OD600 value of the respective wells. The average fluorescence of control wells was used as a relative measure for 100% activation of the agr-circuit, and bar graphs were generated using GraphPad Prism 10.4 software. All assays were performed in at least a biological duplicate.
# (§3) Overnight cultures of the reporter strains were grown in TSB medium containing chloramphenicol (CAM, 10 μg/mL for S. aureus) or erythromycin (ERM, 10 μg/mL of S. epidermidis and S. lugdunensis) and diluted 1:100 in fresh TSB medium containing the same antibiotic. Assays were performed in sterile black 96-well plates with clear bottoms. Peptide solutions (15 μL) in 1:5 serial dilutions from DMSO stock solutions (1 mM) in TSB medium were added to the 96-well plate in technical duplicate followed by diluted bacterial overnight cultures (135 μL). Control wells for 100% agr activity were wells replacing the peptide solution with TSB medium (15 μL). Wells containing 150 μL TSB medium were used to measure background fluorescence. The 96-well plates were incubated in a humidified incubator at 37°C shaking at 1,000 rpm for 22–24 h and fluorescence (for GFP: excitation 479 nm, emission 520 nm; for YFP: excitation 500 nm, emission 541 nm; automatic gain), and OD600 values were subsequently measured using a plate reader. Background fluorescence was subtracted from all wells and further normalized to the corresponding OD600 value of the respective wells. The average fluorescence of control wells was used as a relative measure for 100% activation of the agr-circuit. Relative agr activity was plotted to obtain IC50 values by non-linear regression with variable slope using GraphPad Prism 10.4 software. All assays were performed in biological triplicate.
# SA AgrC-III = SA AgrC-III (Staphylococcus aureus, UniProt O33590); assay: β-Lactamase assay, reporter strain RN10829 (P2-agrA:P3-blaZ) with pagrC-III; assay type: cell-based
# From the text: as §1
# S. aureus (SA) agr-IV = conditions: fluorescence, cited from earlier work
# S. aureus (SA) agr-II = conditions: fluorescence, cited from earlier work
# S. epidermidis agr-I = S. epidermidis agr-I (Staphylococcus epidermidis, UniProt Q5HMY3); assay: cell-based; assay type: cell-based; conditions: fluorescent reporter strain; peptides tested at 1000, 50, 2.5, 0.125 nM or in dose-response
# Description: as §2, with “μL).” for “μL). Control wells for 100% agr activity were wells replacing the peptide solution with TSB medium (15 μL).”
# as §3, with “Control wells for 100% agr activity were wells replacing the peptide solution with TSB medium (15 μL).” left out
# S. aureus (SA) agr-III = conditions: fluorescence, cited from earlier work
# S. aureus (SA) agr-I = conditions: fluorescence, cited from earlier work
# S. aureus agr-III = S. aureus agr-III (Staphylococcus aureus, UniProt O33590); assay: cell-based; conditions: fluorescent reporter strain; peptides tested at 1000, 50, 2.5, 0.125 nM or in dose-response
# Description: as §2, §3
# S. aureus agr-IV = S. aureus agr-IV (Staphylococcus aureus, UniProt Q309Z2); assay: cell-based; assay type: cell-based; conditions: fluorescent reporter strain; peptides tested at 1000, 50, 2.5, 0.125 nM or in dose-response
# Description: as §2, §3
# SA AgrC-II, sequence (O33587 entry or part of it): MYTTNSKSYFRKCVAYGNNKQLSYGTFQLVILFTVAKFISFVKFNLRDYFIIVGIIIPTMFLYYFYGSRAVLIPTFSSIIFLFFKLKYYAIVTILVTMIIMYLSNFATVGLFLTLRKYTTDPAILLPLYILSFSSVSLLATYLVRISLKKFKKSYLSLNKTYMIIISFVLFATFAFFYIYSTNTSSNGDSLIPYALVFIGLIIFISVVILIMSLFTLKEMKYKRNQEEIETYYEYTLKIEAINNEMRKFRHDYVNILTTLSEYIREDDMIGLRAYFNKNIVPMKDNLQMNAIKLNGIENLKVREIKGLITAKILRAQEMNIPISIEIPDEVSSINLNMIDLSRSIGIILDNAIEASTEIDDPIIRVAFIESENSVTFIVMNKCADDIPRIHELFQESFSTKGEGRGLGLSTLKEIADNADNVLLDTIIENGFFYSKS
# SA AgrC-III, sequence (O33590 entry or part of it): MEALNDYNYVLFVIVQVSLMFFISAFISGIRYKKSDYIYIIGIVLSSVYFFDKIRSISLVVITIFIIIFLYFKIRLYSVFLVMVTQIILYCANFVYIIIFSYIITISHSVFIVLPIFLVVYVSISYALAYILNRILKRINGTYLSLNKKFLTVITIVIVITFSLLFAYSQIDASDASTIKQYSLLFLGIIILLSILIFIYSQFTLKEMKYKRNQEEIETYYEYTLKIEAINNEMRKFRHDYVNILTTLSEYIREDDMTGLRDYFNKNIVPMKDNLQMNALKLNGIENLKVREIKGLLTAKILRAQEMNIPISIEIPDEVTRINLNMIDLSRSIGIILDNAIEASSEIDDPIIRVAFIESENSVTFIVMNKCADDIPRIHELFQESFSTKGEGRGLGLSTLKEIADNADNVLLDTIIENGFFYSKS
# S. epidermidis agr-I, sequence (Q5HMY3 entry or part of it): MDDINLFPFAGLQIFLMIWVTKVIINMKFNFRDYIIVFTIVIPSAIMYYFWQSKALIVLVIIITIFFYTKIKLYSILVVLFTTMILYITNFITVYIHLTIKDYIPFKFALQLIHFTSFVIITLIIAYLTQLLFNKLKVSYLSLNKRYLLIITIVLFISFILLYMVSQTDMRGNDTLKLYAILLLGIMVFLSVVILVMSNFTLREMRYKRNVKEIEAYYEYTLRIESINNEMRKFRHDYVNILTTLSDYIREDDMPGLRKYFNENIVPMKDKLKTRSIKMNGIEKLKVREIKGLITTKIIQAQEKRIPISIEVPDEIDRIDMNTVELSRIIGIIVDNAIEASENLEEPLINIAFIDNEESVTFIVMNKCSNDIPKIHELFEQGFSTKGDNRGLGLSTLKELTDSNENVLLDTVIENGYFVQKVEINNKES
# SA AgrC-I, sequence (O07911 entry or part of it): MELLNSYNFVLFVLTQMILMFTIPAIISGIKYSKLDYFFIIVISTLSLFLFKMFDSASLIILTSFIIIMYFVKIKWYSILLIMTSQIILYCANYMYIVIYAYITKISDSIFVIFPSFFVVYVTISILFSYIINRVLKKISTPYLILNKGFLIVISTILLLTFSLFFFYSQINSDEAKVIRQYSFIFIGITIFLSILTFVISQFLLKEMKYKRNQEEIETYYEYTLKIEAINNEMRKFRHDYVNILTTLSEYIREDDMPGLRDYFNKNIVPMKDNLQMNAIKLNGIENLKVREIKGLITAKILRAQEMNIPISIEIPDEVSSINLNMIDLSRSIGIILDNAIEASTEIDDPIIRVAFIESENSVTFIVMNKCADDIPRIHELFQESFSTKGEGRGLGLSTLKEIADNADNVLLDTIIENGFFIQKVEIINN
# SA AgrC-IV, sequence (Q309Z2 entry or part of it): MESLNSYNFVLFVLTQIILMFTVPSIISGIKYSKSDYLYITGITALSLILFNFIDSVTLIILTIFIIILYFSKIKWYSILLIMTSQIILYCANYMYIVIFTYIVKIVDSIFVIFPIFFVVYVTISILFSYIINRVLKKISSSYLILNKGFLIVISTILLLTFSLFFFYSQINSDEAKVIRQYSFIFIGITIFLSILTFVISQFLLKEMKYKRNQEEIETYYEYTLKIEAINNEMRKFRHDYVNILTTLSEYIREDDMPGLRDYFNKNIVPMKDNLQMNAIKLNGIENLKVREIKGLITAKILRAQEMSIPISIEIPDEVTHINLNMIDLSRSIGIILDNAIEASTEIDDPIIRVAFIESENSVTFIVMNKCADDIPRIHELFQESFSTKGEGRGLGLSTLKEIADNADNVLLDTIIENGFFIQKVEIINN
# S. epidermidis agr-II, sequence (Q8VSX5 entry or part of it): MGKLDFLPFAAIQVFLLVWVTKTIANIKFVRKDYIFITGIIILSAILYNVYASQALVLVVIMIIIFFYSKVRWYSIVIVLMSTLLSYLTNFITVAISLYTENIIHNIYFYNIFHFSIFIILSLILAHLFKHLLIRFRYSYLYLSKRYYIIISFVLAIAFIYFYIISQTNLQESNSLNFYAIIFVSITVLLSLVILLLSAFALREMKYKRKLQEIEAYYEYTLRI
# S. aureus agr-III, sequence (O33590 entry or part of it): as the sequence (O33590 entry or part of it) above
# S. aureus agr-IV, sequence (Q309Z2 entry or part of it): as the sequence (Q309Z2 entry or part of it) above
compound,measurement,setting,value
"CC(C)C[C@@H]1NC(=O)[C@H](Cc2ccc(O)cc2)NC(=O)[C@H](CO)NC(=O)[C@H](C)NC(=O)[C@@H](NC(=O)[C@@H]2CCCN2C(=O)[C@H](CC(N)=O)NC(=O)[C@H](Cc2ccc(O)cc2)NC(=O)[C@H](CCCCN)NC(=O)[C@H](C)NC(=O)[C@H](C)NC(=O)[C@@H](N)CC(N)=O)CSC1=O [compound 7, S. epidermidis AIP-III] (H-NAAKYNPCASYL; thioester 8-C)","IC50, SA AgrC-II, b-lactamase assay","SA AgrC-II; 100 nM cognate AIP, ± SEM, -b = no inhibition recorded at the highest AIP concentration tested, -a = only partial inhibition observed, this study (curves in Fig. S20)",-b
same,"IC50, SA AgrC-IV, b-lactamase assay",SA AgrC-IV,-b
same,"effect from supernatant (% inhibition, activation or no effect), SE agr-I","[1]; from supernatant, ref (18)",~ 50%
same,IC50,[1]; ref (11),34.3 nM
same,"effect from supernatant (% inhibition, activation or no effect), SE agr-II","[2]; from supernatant, ref (18)",no effect
same,"effect from supernatant (% inhibition, activation or no effect), SE agr-III","[3]; from supernatant, ref (18)",activation
same,IC50,SA AgrC-I,> 10000 nM
same,"QS interaction in words (inhibition / activation), S. epidermidis agr-II",S. epidermidis agr-II,activator
same,IC50,SA AgrC-III,> 10000 nM
"CC(C)[C@H](NC(=O)[C@H](CC(N)=O)NC(=O)[C@H](Cc1ccc(O)cc1)NC(=O)[C@@H](N)CO)C(=O)N[C@H]1CSC(=O)[C@H](Cc2ccccc2)NC(=O)[C@H](Cc2ccc(O)cc2)NC(=O)CNC(=O)CNC1=O [compound 10, S. hominis AIP-I] (H-SYNVCGGYF; thioester 5-C; N-terminus assumed)",IC50,SA AgrC-II,> 1000 nM
same,"IC50, SA AgrC-IV, b-lactamase assay",SA AgrC-IV,-b
same,"inhibition by supernatant, SA agr-IV","S. aureus (SA) agr-IV; by supernatant, ref (12)",no inhibition
same,IC50,S. aureus (SA) agr-IV; ref (13),2910 nM
same,"inhibition by supernatant, SA agr-II","S. aureus (SA) agr-II; by supernatant, ref (12)",~ 70%
same,IC50,S. aureus (SA) agr-II; ref (13),31 nM
same,IC50,[2]; ref (13),34 nM
same,IC50,[3]; ref (13),16 nM
same,IC50,SA AgrC-I,224 ± 37 nM
same,"QS interaction in words (inhibition / activation), S. epidermidis agr-I",S. epidermidis agr-I,activates
same,IC50,SA AgrC-III,338 ± 83 nM
same,"inhibition by supernatant, SA agr-III","S. aureus (SA) agr-III; by supernatant, ref (12)",~ 80%
same,IC50,S. aureus (SA) agr-III; ref (13),5 nM
same,IC50,S. aureus (SA) agr-I; ref (12),0.624 nM
same,IC50,S. aureus (SA) agr-I; ref (13),13 nM
S. simulans AIP-II P4A [compound 39],"QS interaction in words (inhibition / activation), S. aureus agr-III",S. aureus agr-III,activator
same,"QS interaction in words (inhibition / activation), S. aureus agr-IV",S. aureus agr-IV,activator
